According to the supplement of paper PMC10307832:

Columns and labels:
Test in all cases: relative viability (nuclei count vs DMSO), 5 days (fraction); higher = more cells survive
[1] = system: 201T
Procedure, shortened: (§1)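 Nuclei were stained with Hoechst during a one-step fixation (final 0.05% Triton X-100, 1% formaldehyde, 1 ug/ml Hoechst) carried out 5 days after dosing, then counted on 4× images. The cells, lung cancer lines in 1536-well plates, had been dosed by pin tool the day after seeding with one drug alone or a fixed anchor-drug dose plus five library-drug doses (not always all listed) in √10 steps. Relative viability is the nuclei count in treated wells divided by that in vehicle wells, and each value is the median of duplicate plates.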

[2] = system: BEN
Procedure, shortened: as §1

[3] = system: EMC-BAC-2
Procedure, shortened: as §1

[4] = system: HARA
Procedure, shortened: as §1

[5] = system: HCC-44
Procedure, shortened: as §1

[6] = system: LOU-NH91
Procedure, shortened: as §1

[7] = system: NCI-H1395
Procedure, shortened: as §1

[8] = system: NCI-H1993
Procedure, shortened: as §1

[9] = system: NCI-H2023
Procedure, shortened: as §1

[10] = system: NCI-H2087
Procedure, shortened: as §1

[11] = system: NCI-H2126
Procedure, shortened: as §1

[12] = system: NCI-H2347
Procedure, shortened: as §1

[13] = system: NCI-H23
Procedure, shortened: as §1

[14] = system: NCI-H3122
Procedure, shortened: as §1

[15] = system: NCI-H441
Procedure, shortened: as §1

[16] = system: NCI-H596
Procedure, shortened: as §1

[17] = system: NCI-H647
Procedure, shortened: as §1

[18] = system: NCI-H727
Procedure, shortened: as §1

[19] = system: NCI-H838
Procedure, shortened: as §1

Which relative viability ([1]; first compound 0.08 µM) does the source give for `O=c1cc(-c2cccc3c2Sc2ccccc2S3)oc(N2CCOCC2)c1` + CC1(C)CCC(c2ccc(Cl)cc2)=C(CN2CCN(c3ccc(C(=O)NS(=O)(=O)c4ccc(N[C@H](CCN5CCOCC5)CSc5ccccc5)c(S(=O)(=O)C(F)(F)F)c4)cc3)CC2)C1 [Navitoclax] (partner 0.5 µM) here?
The relative viability was 1.15.

And the relative viability ([1]; first compound 0.253 µM)?
The relative viability was 1.2.

What about the relative viability ([1]; first compound 0.8 µM) of the same compound?
The relative viability was 1.23.

What about the relative viability ([1]; first compound 2.53 µM) of the same compound?
Its relative viability is 1.2.

And the relative viability ([1]; first compound 8 µM)?
Its relative viability is 1.15.

What about the relative viability ([2]; first compound 0.08 µM) of the same compound?
The relative viability was 0.0636.

And the relative viability ([2]; first compound 0.253 µM)?
Its relative viability is 0.0609.

What about the relative viability ([2]; first compound 0.8 µM) of the same compound?
Its relative viability is 0.0602.

And the relative viability ([2]; first compound 2.53 µM)?
The relative viability was 0.0598.

And the relative viability ([2]; first compound 8 µM)?
The relative viability was 0.0681.

What about the relative viability ([3]; first compound 0.08 µM) of the same compound?
The relative viability was 1.3.

And the relative viability ([3]; first compound 0.253 µM)?
The relative viability was 1.41.

And the relative viability ([3]; first compound 0.8 µM)?
The relative viability was 1.37.

What about the relative viability ([3]; first compound 2.53 µM) of the same compound?
Its relative viability is 1.2.

And the relative viability ([3]; first compound 8 µM)?
Its relative viability is 1.35.

What about the relative viability ([4]; first compound 0.08 µM) of the same compound?
The relative viability was 1.16.

And the relative viability ([4]; first compound 0.253 µM)?
The relative viability was 1.36.

What about the relative viability ([4]; first compound 0.8 µM) of the same compound?
Its relative viability is 1.01.

What about the relative viability ([4]; first compound 2.53 µM) of the same compound?
The relative viability was 1.11.

And the relative viability ([4]; first compound 8 µM)?
Its relative viability is 1.2.

What about the relative viability ([5]; first compound 0.08 µM) of the same compound?
The relative viability was 0.916.

And the relative viability ([5]; first compound 0.253 µM)?
The relative viability was 1.2.

What about the relative viability ([5]; first compound 0.8 µM) of the same compound?
Its relative viability is 0.859.

And the relative viability ([5]; first compound 2.53 µM)?
Its relative viability is 0.96.

What about the relative viability ([5]; first compound 8 µM) of the same compound?
The relative viability was 0.905.

What about the relative viability ([6]; first compound 0.08 µM) of the same compound?
Its relative viability is 0.711.

What about the relative viability ([6]; first compound 0.253 µM) of the same compound?
Its relative viability is 0.68.

What about the relative viability ([6]; first compound 0.8 µM) of the same compound?
The relative viability was 0.573.

And the relative viability ([6]; first compound 2.53 µM)?
Its relative viability is 0.59.

What about the relative viability ([6]; first compound 8 µM) of the same compound?
The relative viability was 0.705.

And the relative viability ([7]; first compound 0.08 µM)?
The relative viability was 1.14.

And the relative viability ([7]; first compound 0.253 µM)?
Its relative viability is 1.1.

And the relative viability ([7]; first compound 0.8 µM)?
The relative viability was 1.12.

And the relative viability ([7]; first compound 2.53 µM)?
Its relative viability is 1.13.

What about the relative viability ([7]; first compound 8 µM) of the same compound?
The relative viability was 1.03.

What about the relative viability ([8]; first compound 0.08 µM) of the same compound?
Its relative viability is 1.09.

What about the relative viability ([8]; first compound 0.253 µM) of the same compound?
The relative viability was 0.989.

What about the relative viability ([8]; first compound 0.8 µM) of the same compound?
The relative viability was 0.768.

And the relative viability ([8]; first compound 2.53 µM)?
The relative viability was 0.824.

And the relative viability ([8]; first compound 8 µM)?
The relative viability was 0.871.

And the relative viability ([9]; first compound 0.08 µM)?
Its relative viability is 1.04.

What about the relative viability ([9]; first compound 0.253 µM) of the same compound?
Its relative viability is 1.12.

And the relative viability ([9]; first compound 0.8 µM)?
The relative viability was 1.04.

What about the relative viability ([9]; first compound 2.53 µM) of the same compound?
The relative viability was 0.943.

And the relative viability ([9]; first compound 8 µM)?
The relative viability was 1.02.

And the relative viability ([10]; first compound 0.08 µM)?
The relative viability was 0.995.

And the relative viability ([10]; first compound 0.253 µM)?
The relative viability was 1.3.

And the relative viability ([10]; first compound 0.8 µM)?
The relative viability was 1.07.

And the relative viability ([10]; first compound 2.53 µM)?
Its relative viability is 0.955.

What about the relative viability ([10]; first compound 8 µM) of the same compound?
The relative viability was 1.21.

What about the relative viability ([11]; first compound 0.08 µM) of the same compound?
The relative viability was 0.808.

What about the relative viability ([11]; first compound 0.253 µM) of the same compound?
Its relative viability is 0.974.

And the relative viability ([11]; first compound 0.8 µM)?
Its relative viability is 0.8.

What about the relative viability ([11]; first compound 2.53 µM) of the same compound?
The relative viability was 0.826.

What about the relative viability ([11]; first compound 8 µM) of the same compound?
Its relative viability is 0.849.

And the relative viability ([12]; first compound 0.08 µM)?
The relative viability was 0.855.

What about the relative viability ([12]; first compound 0.253 µM) of the same compound?
The relative viability was 1.08.

What about the relative viability ([12]; first compound 0.8 µM) of the same compound?
The relative viability was 0.799.

And the relative viability ([12]; first compound 2.53 µM)?
The relative viability was 0.839.

And the relative viability ([12]; first compound 8 µM)?
The relative viability was 0.969.

What about the relative viability ([13]; first compound 0.08 µM) of the same compound?
The relative viability was 0.829.

What about the relative viability ([13]; first compound 0.253 µM) of the same compound?
Its relative viability is 1.01.

What about the relative viability ([13]; first compound 0.8 µM) of the same compound?
The relative viability was 0.879.

What about the relative viability ([13]; first compound 2.53 µM) of the same compound?
Its relative viability is 0.725.

And the relative viability ([13]; first compound 8 µM)?
The relative viability was 0.884.

What about the relative viability ([14]; first compound 0.08 µM) of the same compound?
The relative viability was 1.04.

What about the relative viability ([14]; first compound 0.253 µM) of the same compound?
The relative viability was 1.01.

What about the relative viability ([14]; first compound 0.8 µM) of the same compound?
The relative viability was 1.03.

What about the relative viability ([14]; first compound 2.53 µM) of the same compound?
Its relative viability is 1.02.

What about the relative viability ([14]; first compound 8 µM) of the same compound?
The relative viability was 1.03.

And the relative viability ([15]; first compound 0.08 µM)?
Its relative viability is 1.14.

And the relative viability ([15]; first compound 0.253 µM)?
The relative viability was 0.909.

What about the relative viability ([15]; first compound 0.8 µM) of the same compound?
The relative viability was 0.523.

What about the relative viability ([15]; first compound 2.53 µM) of the same compound?
Its relative viability is 0.776.

What about the relative viability ([15]; first compound 8 µM) of the same compound?
Its relative viability is 0.762.

What about the relative viability ([16]; first compound 0.08 µM) of the same compound?
The relative viability was 0.843.

And the relative viability ([16]; first compound 0.253 µM)?
The relative viability was 1.3.

What about the relative viability ([16]; first compound 0.8 µM) of the same compound?
The relative viability was 1.09.

What about the relative viability ([16]; first compound 2.53 µM) of the same compound?
The relative viability was 1.09.

And the relative viability ([16]; first compound 8 µM)?
The relative viability was 1.14.

What about the relative viability ([17]; first compound 0.08 µM) of the same compound?
The relative viability was 1.2.

And the relative viability ([17]; first compound 0.253 µM)?
Its relative viability is 1.15.

What about the relative viability ([17]; first compound 0.8 µM) of the same compound?
Its relative viability is 1.12.

And the relative viability ([17]; first compound 2.53 µM)?
The relative viability was 1.04.

What about the relative viability ([17]; first compound 8 µM) of the same compound?
The relative viability was 1.37.

What about the relative viability ([18]; first compound 0.253 µM) of the same compound?
Its relative viability is 0.356.

What about the relative viability ([18]; first compound 2.53 µM) of the same compound?
The relative viability was 0.369.

And the relative viability ([18]; first compound 8 µM)?
Its relative viability is 0.494.

What about the relative viability ([19]; first compound 0.08 µM) of the same compound?
The relative viability was 1.11.

What about the relative viability ([19]; first compound 0.253 µM) of the same compound?
The relative viability was 1.64.

What about the relative viability ([19]; first compound 0.8 µM) of the same compound?
The relative viability was 0.944.

What about the relative viability ([19]; first compound 2.53 µM) of the same compound?
Its relative viability is 1.02.

And the relative viability ([19]; first compound 8 µM)?
Its relative viability is 1.09.
